How the values were obtained:
[1] = system: human peripheral blood mononuclear cells; type: cell-based; conditions: human PBMCs and whole human blood, Fig. 6
[2] = system: human TLR2, TLR3, TLR4, TLR5, TLR7, TLR9, TLR10, Nod1 and Nod2; experiment: counter-screen in reporter cell lines specific for other human TLRs and Nods; type: cell-based

Compound | cytokine/chemokine induction profile [1] | specificity in counter-screens [2]
CCCCCc1cc2ccccc2nc1N [Compound 14b, 3-pentylquinolin-2-amine] | induction of a specific set of chemokines and proinflammatory cytokines, including interleukins 12 and 18 | –
CCCCSc1cc2ccccc2nc1N [Compound 12, 3-(butylthio)quinolin-2-amine] | – | specific for human TLR8
CCCCOc1cc2ccccc2nc1N [Compound 6, 3-butoxyquinolin-2-amine] | – | specific for human TLR8
CCCCNc1cc2ccccc2nc1N [Compound 9, N^3-butylquinoline-2,3-diamine] | – | specific for human TLR8
